Test results taken from patent publication US9833497B2, “Human originated EGF domain proteins and use of the same” (CHENGDU SOURCEBIO LIMITED-LIABILITY COMPANY, priority 2013, dated 2017).

Assays:
Type in all cases: cell-based
[1] = system: Pseudomonas aeruginosa; assay: MIC against Gram-negative bacteria: Pseudomonas aeruginosa
Procedure, shortened: (§1)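 Bacteria grown in LB at 37° C to McFarland 0.5, resuspended and seeded at 5×10^5 CFU/mL in 96-well plates. Purified human EGF-domain proteins two-fold serially diluted, triplicate wells; cultured at 37° C, shaking 175 rpm. MIC = lowest protein concentration with no growth.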

[2] = system: Serratia marcescens; assay: MIC against Gram-negative bacteria: Serratia marcescens
Procedure, shortened: as §1

[3] = system: E. coli DH5α; assay: Antibacterial activity: MIC and growth curve against E. coli DH5α in 96-well plate; settings: minimal inhibitory concentration against E. coli DH5α; 96-well plate, 5×10^5 CFU/mL, 37° C., judged after 8 h
Procedure, shortened: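 Log-phase bacteria (OD600 ~0.5) resuspended in LB at 5×10^5 CFU/mL, exposed to recombinant protein at 50, 25, 12.5 μg/mL final in triplicate, 37 °C shaking at 175 rpm. OD600 read every 30 min; MIC is lowest concentration showing no growth.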

[4] = system: E. coli BL21; assay: MIC against Gram-negative bacteria: E. coli BL21
Procedure, shortened: as §1

[5] = system: Citrobacter diversus; assay: MIC against Gram-negative bacteria: Citrobacter diversus
Procedure, shortened: as §1

[6] = system: Proteus mirabilis; assay: MIC against Gram-negative bacteria: Proteus mirabilis
Procedure, shortened: as §1

[7] = system: Moraxella catarrhalis; assay: MIC against Gram-negative bacteria: Moraxella catarrhalis
Procedure, shortened: as §1

[8] = system: Enterobacter cloacae; assay: MIC against Gram-negative bacteria: Enterobacter cloacae
Procedure, shortened: as §1

[9] = system: Aeromonas hydrophila; assay: MIC against Gram-negative bacteria: Aeromonas hydrophila
Procedure, shortened: as §1

[10] = system: Klebsiella pneumonia; assay: MIC against Gram-negative bacteria: Klebsiella pneumonia
Procedure, shortened: as §1

[11] = system: Proteus vulgaris; assay: MIC against Gram-negative bacteria: Proteus vulgaris
Procedure, shortened: as §1

[12] = P. aeruginosa, 10 h cultivation at 37° C., 5×10^5 CFU/mL
[13] = S. marcescens, 10 h cultivation at 37° C., 5×10^5 CFU/mL
[14] = E. coli BL21, 10 h cultivation at 37° C., 5×10^5 CFU/mL
[15] = C. diversus, 10 h cultivation at 37° C., 5×10^5 CFU/mL
[16] = P. mirabilis, 10 h cultivation at 37° C., 5×10^5 CFU/mL
[17] = M. catarrhalis, 10 h cultivation at 37° C., 5×10^5 CFU/mL
[18] = E. cloacae, 10 h cultivation at 37° C., 5×10^5 CFU/mL
[19] = A. hydrophila, 10 h cultivation at 37° C., 5×10^5 CFU/mL
[20] = K. pneumonia, 10 h cultivation at 37° C., 5×10^5 CFU/mL
[21] = P. vulgaris, 10 h cultivation at 37° C., 5×10^5 CFU/mL
[22] = Pseudomonas aeruginosa, 96-well plate, 5×10^5 CFU/mL, 37° C., 10 h
[23] = Serratia marcescens, 96-well plate, 5×10^5 CFU/mL, 37° C., 10 h
[24] = E. coli BL21, 96-well plate, 5×10^5 CFU/mL, 37° C., 10 h
[25] = Citrobacter diversus, 96-well plate, 5×10^5 CFU/mL, 37° C., 10 h
[26] = Proteus mirabilis, 96-well plate, 5×10^5 CFU/mL, 37° C., 10 h
[27] = Moraxella catarrhalis, 96-well plate, 5×10^5 CFU/mL, 37° C., 10 h
[28] = Enterobacter cloacae, 96-well plate, 5×10^5 CFU/mL, 37° C., 10 h
[29] = Aeromonas hydrophila, 96-well plate, 5×10^5 CFU/mL, 37° C., 10 h
[30] = Klebsiella pneumonia, 96-well plate, 5×10^5 CFU/mL, 37° C., 10 h
[31] = Proteus vulgaris, 96-well plate, 5×10^5 CFU/mL, 37° C., 10 h
[32] = 10 h cultivation at 37° C., 5×10^5 CFU/mL, two-fold serial dilution
[33] = 96-well plate, 5×10^5 CFU/mL, 37° C., 10 h

PRT218 (DINECDASNQCAQQCYNILGSFICQCNQGYELSSDRLNCE; listed as Homo sapiens)
MIC (μg/mL) P. aeruginosa [1, 12]: 50 µg/mL | MIC (μg/mL) S. marcescens [2, 13]: 25 µg/mL | MIC [3]: 100 mg/L | MIC (μg/mL) E. coli BL21 [4, 14]: 50 µg/mL | MIC (μg/mL) C. diversus [5, 15]: 25 µg/mL | MIC (μg/mL) P. mirabilis [6, 16]: 25 µg/mL | MIC (μg/mL) M. catarrhalis [7, 17]: 50 µg/mL | MIC (μg/mL) E. cloacae [8, 18]: 25 µg/mL | MIC (μg/mL) A. hydrophila [9, 19]: 12.5 µg/mL | MIC (μg/mL) K. pneumonia [10, 20]: 50 µg/mL | MIC (μg/mL) P. vulgaris [11, 21]: 50 µg/mL

PRT1425 (DIDECENGGFCSGVCHNLPGTFECICGPDSALARHIGTDCD; listed as Homo sapiens)
MIC against P. aeruginosa ([1]; Pseudomonas aeruginosa, 5×10^5 CFU/mL, 10 h cultivation at 37° C.): 12.5 mg/L | MIC against S. marcescens ([2]; Serratia marcescens, 5×10^5 CFU/mL, 10 h cultivation at 37° C.): 12.5 mg/L | MIC [3]: 12.5 mg/L | MIC against E. coli BL21 ([4]; E. coli BL21, 5×10^5 CFU/mL, 10 h cultivation at 37° C.): 50 mg/L | MIC against C. diversus ([5]; Citrobacter diversus, 5×10^5 CFU/mL, 10 h cultivation at 37° C.): 50 mg/L | MIC against P. mirabilis ([6]; Proteus mirabilis, 5×10^5 CFU/mL, 10 h cultivation at 37° C.): 12.5 mg/L | MIC against M. catarrhalis ([7]; Moraxella catarrhalis, 5×10^5 CFU/mL, 10 h cultivation at 37° C.): 12.5 mg/L | MIC against E. cloacae ([8]; Enterobacter cloacae, 5×10^5 CFU/mL, 10 h cultivation at 37° C.): 25 mg/L | MIC against A. hydrophila ([9]; Aeromonas hydrophila, 5×10^5 CFU/mL, 10 h cultivation at 37° C.): 12.5 mg/L | MIC against K. pneumonia ([10]; Klebsiella pneumonia, 5×10^5 CFU/mL, 10 h cultivation at 37° C.): 50 mg/L | MIC against P. vulgaris ([11]; Proteus vulgaris, 5×10^5 CFU/mL, 10 h cultivation at 37° C.): 12.5 mg/L

PRT957 (APPCLDGSPCANGGRCTQLPSREAACLCPPGWVGERCQ; listed as Homo sapiens)
MIC ([1]; P. aeruginosa, 10 h cultivation at 37° C.): 50 mg/L | MIC ([2]; S. marcescens, 10 h cultivation at 37° C.): 12.5 mg/L | MIC [3]: 12.5 mg/L | MIC ([4]; E. coli BL21, 10 h cultivation at 37° C.): 25 mg/L | MIC ([5]; C. diversus, 10 h cultivation at 37° C.): 50 mg/L | MIC ([6]; P. mirabilis, 10 h cultivation at 37° C.): 25 mg/L | MIC ([7]; M. catarrhalis, 10 h cultivation at 37° C.): 12.5 mg/L | MIC ([8]; E. cloacae, 10 h cultivation at 37° C.): 12.5 mg/L | MIC ([9]; A. hydrophila, 10 h cultivation at 37° C.): 25 mg/L | MIC ([10]; K. pneumonia, 10 h cultivation at 37° C.): 25 mg/L | MIC ([11]; P. vulgaris, 10 h cultivation at 37° C.): 50 mg/L

PRT413 (DVNECITGSHSCRLGESCINTVGSFRCQRDSSCGTGYELTEDNSCK; listed as Homo sapiens)
MIC [1, 12]: 12.5 mg/L | MIC [2, 13]: 12.5 mg/L | MIC [3]: 12.5 mg/L | MIC [4, 14]: 12.5 mg/L | MIC [5, 15]: 12.5 mg/L | MIC [6, 16]: 12.5 mg/L | MIC [7, 17]: 50 mg/L | MIC [8, 18]: 12.5 mg/L | MIC [9, 19]: 50 mg/L | MIC [10, 20]: 50 mg/L | MIC [11, 21]: 12.5 mg/L

PRT20 (QKNLCNNTGDPEMCPENGSCVPDGPGLLQCVCADGFHGYKCM; listed as Homo sapiens)
MIC (μg/mL) P. aeruginosa [1, 22]: 50 µg/mL | MIC (μg/mL) S. marcescens [2, 23]: 12.5 µg/mL | MIC [3]: 12.5 mg/L | MIC (μg/mL) E. coli BL21 [4, 24]: 25 µg/mL | MIC (μg/mL) C. diversus [5, 25]: 25 µg/mL | MIC (μg/mL) P. mirabilis [6, 26]: 50 µg/mL | MIC (μg/mL) M. catarrhalis [7, 27]: 12.5 µg/mL | MIC (μg/mL) E. cloacae [8, 28]: 12.5 µg/mL | MIC (μg/mL) A. hydrophila [9, 29]: 50 µg/mL | MIC (μg/mL) K. pneumonia [10, 30]: 25 µg/mL | MIC (μg/mL) P. vulgaris [11, 31]: 25 µg/mL

PRT1162 (DIDDCILNACEHNSTCKDLHLSYQCVCLSDWEGNFCE; listed as Homo sapiens)
MIC P. aeruginosa [1, 32]: 12.5 mg/L | MIC S. marcescens [2, 32]: 25 mg/L | MIC [3]: 12.5 mg/L | MIC E. coli BL21 [4, 32]: 50 mg/L | MIC C. diversus [5, 32]: 25 mg/L | MIC P. mirabilis [6, 32]: 25 mg/L | MIC M. catarrhalis [7, 32]: 12.5 mg/L | MIC E. cloacae [8, 32]: 12.5 mg/L | MIC A. hydrophila [9, 32]: 50 mg/L | MIC K. pneumonia [10, 32]: 50 mg/L | MIC P. vulgaris [11, 32]: 50 mg/L

PRT189 (SIDACASSPCFNRATCYTDLSTDTFVCNCPYGFVGSRCE; listed as Homo sapiens)
MIC (μg/mL) P. aeruginosa [1, 12]: 25 µg/mL | MIC (μg/mL) S. marcescens [2, 13]: 25 µg/mL | MIC [3]: 25 mg/L | MIC (μg/mL) E. coli BL21 [4, 14]: 12.5 µg/mL | MIC (μg/mL) C. diversus [5, 15]: 25 µg/mL | MIC (μg/mL) P. mirabilis [6, 16]: 25 µg/mL | MIC (μg/mL) M. catarrhalis [7, 17]: 12.5 µg/mL | MIC (μg/mL) E. cloacae [8, 18]: 25 µg/mL | MIC (μg/mL) A. hydrophila [9, 19]: 50 µg/mL | MIC (μg/mL) K. pneumonia [10, 20]: 12.5 µg/mL | MIC (μg/mL) P. vulgaris [11, 21]: 50 µg/mL

PRT784 (FGKNCAGICTCTNNGTCNPIDRSCQCYPGWIGSDCS; listed as Homo sapiens)
MIC (μg/mL) P. aeruginosa [1, 12]: 12.5 µg/mL | MIC (μg/mL) S. marcescens [2, 13]: 12.5 µg/mL | MIC [3]: 50 mg/L | MIC (μg/mL) E. coli BL21 [4, 14]: 25 µg/mL | MIC (μg/mL) C. diversus [5, 15]: 12.5 µg/mL | MIC (μg/mL) P. mirabilis [6, 16]: 12.5 µg/mL | MIC (μg/mL) M. catarrhalis [7, 17]: 50 µg/mL | MIC (μg/mL) E. cloacae [8, 18]: 12.5 µg/mL | MIC (μg/mL) A. hydrophila [9, 19]: 50 µg/mL | MIC (μg/mL) K. pneumonia [10, 20]: 50 µg/mL | MIC (μg/mL) P. vulgaris [11, 21]: 50 µg/mL

PRT85 (KLHFCDSGPCKNSGFCSERWGSFSCDCPVGFGGKDCQ; listed as Homo sapiens)
MIC (μg/mL) P. aeruginosa [1, 22]: 12.5 µg/mL | MIC (μg/mL) S. marcescens [2, 23]: 50 µg/mL | MIC [3]: 12.5 mg/L | MIC (μg/mL) E. coli BL21 [4, 24]: 12.5 µg/mL | MIC (μg/mL) C. diversus [5, 25]: 25 µg/mL | MIC (μg/mL) P. mirabilis [6, 26]: 50 µg/mL | MIC (μg/mL) M. catarrhalis [7, 27]: 50 µg/mL | MIC (μg/mL) E. cloacae [8, 28]: 25 µg/mL | MIC (μg/mL) A. hydrophila [9, 29]: 12.5 µg/mL | MIC (μg/mL) K. pneumonia [10, 30]: 12.5 µg/mL | MIC (μg/mL) P. vulgaris [11, 31]: 12.5 µg/mL

PRT500 (CNCDPVGSLSSVCIKDDLHSDLHNGKQPGQCPCKEGYTGEKCDRCQLGYKDYPTCVS; listed as Homo sapiens)
MIC against P. aeruginosa [1, 33]: 25 mg/L | MIC against S. marcescens [2, 33]: 25 mg/L | MIC [3]: 25 mg/L | MIC against E. coli BL21 [4, 33]: 50 mg/L | MIC against C. diversus [5, 33]: 25 mg/L | MIC against P. mirabilis [6, 33]: 25 mg/L | MIC against M. catarrhalis [7, 33]: 12.5 mg/L | MIC against E. cloacae [8, 33]: 25 mg/L | MIC against A. hydrophila [9, 33]: 50 mg/L | MIC against K. pneumonia [10, 33]: 12.5 mg/L | MIC against P. vulgaris [11, 33]: 50 mg/L
